{"source": "patent US7192931B2", "about": "“Treatment of demyelinating diseases” (Neuren Pharmaceuticals Ltd., priority 2000, dated 2007)", "assay_type_in_all_cases": "in vivo, mouse", "key": {"GluR2": {"system": "GluR2", "test": "GluR2 subunit expression in spinal cord", "conditions": "spinal cord of EAE mice, immunohistochemistry and Western blot", "quoted_text": "Frozen sections from lumbar spinal cord (10 μm) were acetone-fixed and immunostained for oligodendrocyte content with an antibody against CNPase (Sigma; diluted 1:100); for axonal damage with an antibody against non-phosphorylated neurofilament-H (SM 1-32; Stemberger Monoclonals Incorporated, Lutherville, Md., USA; diluted 1:1000), and for GluR2 and NR1 content using mouse mAbs obtained from Zymed Laboratories Inc., Carlton, San Francisco, Calif. Antibody staining was visualized with an avidin:biotinylated enzyme complex (Vector Laboratories, Burlingame, Calif., USA). Sections were viewed under a light microscope, and cells stained with the anti-CNPase and SM 1-32 antibodies were counted.\nPBS-perfused spinal cords were homogenized in lysis buffer (50 mM Tris pH 7.4, 100 μM EDTA, 0.25 M sucrose, 1% sodium dodecyl sulfate [SDS], 1% Nonidet P-40 [NP40], 1 μg/mL leupeptin, 1 μg/mL pepstatin A, and 100 μM phenylmethylsulfonylfluoride) at 4° C. using a motor-driven homogenizer (Virtus, Gardiner, N.Y.). […] The membranes were washed thrice with TBS-T and incubated with horseradish peroxidase-conjugated anti-mouse IgG (Sigma) diluted 1:5000 in TBS-T. Immunoreactivity was detected by Enhanced Chemiluminescence (Amersham International plc. England) and autoradiography."}, "[1]": {"system": "apoptotic cells in spinal cord of EAE mice", "test": "In situ detection of apoptotic cells in the CNS by TUNEL assay", "conditions": "spinal cord sections, compared to mice mock treated with PBS or rat IgG", "description": "Cells undergoing apoptosis were identified using the in situ TUNEL assay. Five-μm thick serial sections of brain and spinal cord were prepared to detect apoptosis by TUNEL (i.e., terminal deoxynucleotidyl transferase-mediated deoxyuridine triphosphate-digoxigenin nick end labeling) staining using the In Situ Apoptosis Detection Kit from Boehringer Mannheim (Germany). Briefly, frozen sections were fixed in 4% paraformaldehyde, permeabilized in 0.1% Triton X-100, incubated with 20 μL TUNEL reagent for 60 minutes at 37° C., and then examined by fluorescence microscopy. Adjacent sections were counterstained with hematoxylin and mounted onto poly-L-lysine coated slides to allow the total number of nucleated cells to be counted. The percentage of apoptotic cells was assessed in ten randomly selected fields viewed at 40× magnification. The apoptotic index (AI) was calculated as follows: AI=number of apoptotic (TUNEL-positive) cells×100/total number of nucleated cells."}, "[2]": {"system": "C57Bl/6 mice with MOG35-55 peptide-induced EAE", "test": "Expanded disability status scale for EAE treated mice", "conditions": "for Maximal disability score: Alertness / Maximal disability score: Bladder function / Maximal disability score: Eye movements / Maximal disability score: Motor (grip)* / Maximal disability score: Other signs (shine hairs and loose skin) / Maximal disability score: Sensory* Light touch / Maximal disability score: Sensory* Pain / Maximal disability score: Spontaneous mobility / Maximal disability score: Tone* / Maximal disability score: Tremor / Maximal disability score: Vision (including pupillary reflex) / Total expanded disability scale: mean values", "description": "C57Bl/6 mice (8–10 week old) were injected subcutaneously in one flank with 300 μg of MOG35-55 peptide ([…]: SEQ ID NO:1) synthesized by Mimotapes Pty Ltd, Clayton, Australia and emulsified in CFA containing 500 μg of Mycobacterium tuberculosis H37Ra (DIFCO Laboratories, Detrit, USA). They also received 500 ng of pertussis toxin (List Biological Laboratories, CA, USA) in 200 μl PBS intravenously via the tail vein, followed 48 hours later by a second dose. A second injection of MOG peptide was given in the absence of pertussis toxin one week later in the opposite flank, as described previously (Kanwar et al., 2000b).\nTwo treatment protocols were employed, involving the treatment of early disease, versus advanced disease. For early disease, reagents were administered at day 35 (following MOG injection). Antibody was administered thrice on alternate days, whereas neuroprotectors were given daily for 6 days, where 50% of reagent was given ip and 50% iv. In the treatment of advanced disease, therapy as above was initiated at day 60, with either three or eight anti-MAdCAM-1 mAb injections, and neuroprotectors given daily for either 7 or 18 days.\nThe mice were monitored daily and scored according to the following scale: 0, no clinical signs of EAE; 1, limp tail; 2, partial hind limb paralysis; 3, complete hind limb paralysis; 4, complete hind limb and partial fore limb paralysis; 5, paralysis extending to diaphragm; 6, hind and fore limb paralysis; 7, death due to EAE. Paralysis extending to the diaphragm was denoted as difficulty in remaining upright. […] The daily mean clinical score for each group is the mean disease score of at least five mice. The body weight of animals was measured regularly throughout the experiments. The expanded disability status scale for EAE treated mice was scored using an earlier published scoring system (Villoslada et al. 2000)."}}}
{"smiles": "NS(=O)(=O)c1cccc2c1c([N+](=O)[O-])cc1nc(O)c(O)nc12", "note": "[NBQX, 2,3-dihydroxy-6-nitro-7-sulfamoylbenzo(f)quinoxaline]", "values": [{"measurement": "GluR2 expression", "setting": "GluR2", "result": "downregulates the AMPA receptor"}, {"measurement": "reductions in the numbers of apoptotic cells", "setting": "[1]", "result": "~30", "unit": "%"}, {"measurement": "total scores (disability scale)", "setting": "[2]; at day 70 as printed, 35 for rat IgG treated control mice", "result": 30}, {"measurement": "Maximal disability score: Alertness", "setting": "[2]; day 55 after immunization", "result": 2}, {"measurement": "Maximal disability score: Bladder function", "setting": "[2]; day 55 after immunization", "result": 0}, {"measurement": "Maximal disability score: Eye movements", "setting": "[2]; day 55 after immunization", "result": 1}, {"measurement": "Maximal disability score: Motor (grip)*", "setting": "[2]; day 55 after immunization", "result": 12}, {"measurement": "Maximal disability score: Other signs (shine hairs and loose skin)", "setting": "[2]; day 55 after immunization", "result": 3}, {"measurement": "Maximal disability score: Sensory* Light touch", "setting": "[2]; day 55 after immunization", "result": 8}, {"measurement": "Maximal disability score: Sensory* Pain", "setting": "[2]; day 55 after immunization", "result": 8}, {"measurement": "Maximal disability score: Spontaneous mobility", "setting": "[2]; day 55 after immunization", "result": 3}, {"measurement": "Maximal disability score: Tone*", "setting": "[2]; day 55 after immunization", "result": 12}, {"measurement": "Maximal disability score: Tremor", "setting": "[2]; day 55 after immunization", "result": 2}, {"measurement": "Maximal disability score: Vision (including pupillary reflex)", "setting": "[2]; day 55 after immunization", "result": 1}, {"measurement": "Total expanded disability scale", "setting": "[2]; day 55 after immunization", "result": 53}, {"measurement": "Maximal disability score: Alertness", "setting": "[2]; day 60 after immunization", "result": 2}, {"measurement": "Maximal disability score: Bladder function", "setting": "[2]; day 60 after immunization", "result": 1}, {"measurement": "Maximal disability score: Eye movements", "setting": "[2]; day 60 after immunization", "result": 1}, {"measurement": "Maximal disability score: Motor (grip)*", "setting": "[2]; day 60 after immunization", "result": 12}, {"measurement": "Maximal disability score: Other signs (shine hairs and loose skin)", "setting": "[2]; day 60 after immunization", "result": 2}, {"measurement": "Maximal disability score: Sensory* Light touch", "setting": "[2]; day 60 after immunization", "result": 8}, {"measurement": "Maximal disability score: Sensory* Pain", "setting": "[2]; day 60 after immunization", "result": 8}, {"measurement": "Maximal disability score: Spontaneous mobility", "setting": "[2]; day 60 after immunization", "result": 3}, {"measurement": "Maximal disability score: Tone*", "setting": "[2]; day 60 after immunization", "result": 12}, {"measurement": "Maximal disability score: Tremor", "setting": "[2]; day 60 after immunization", "result": 2}, {"measurement": "Maximal disability score: Vision (including pupillary reflex)", "setting": "[2]; day 60 after immunization", "result": 1}, {"measurement": "Total expanded disability scale", "setting": "[2]; day 60 after immunization", "result": 53}, {"measurement": "Maximal disability score: Alertness", "setting": "[2]; day 65 after immunization", "result": 1}, {"measurement": "Maximal disability score: Bladder function", "setting": "[2]; day 65 after immunization", "result": 0}, {"measurement": "Maximal disability score: Eye movements", "setting": "[2]; day 65 after immunization", "result": 0}, {"measurement": "Maximal disability score: Motor (grip)*", "setting": "[2]; day 65 after immunization", "result": 4}, {"measurement": "Maximal disability score: Other signs (shine hairs and loose skin)", "setting": "[2]; day 65 after immunization", "result": 0}, {"measurement": "Maximal disability score: Sensory* Light touch", "setting": "[2]; day 65 after immunization", "result": 0}, {"measurement": "Maximal disability score: Sensory* Pain", "setting": "[2]; day 65 after immunization", "result": 0}, {"measurement": "Maximal disability score: Spontaneous mobility", "setting": "[2]; day 65 after immunization", "result": 2}, {"measurement": "Maximal disability score: Tone*", "setting": "[2]; day 65 after immunization", "result": 8}, {"measurement": "Maximal disability score: Tremor", "setting": "[2]; day 65 after immunization", "result": 0}, {"measurement": "Maximal disability score: Vision (including pupillary reflex)", "setting": "[2]; day 65 after immunization", "result": 0}, {"measurement": "Total expanded disability scale", "setting": "[2]; day 65 after immunization", "result": 15}, {"measurement": "Maximal disability score: Alertness", "setting": "[2]; day 70 after immunization", "result": 1}, {"measurement": "Maximal disability score: Bladder function", "setting": "[2]; day 70 after immunization", "result": 0}, {"measurement": "Maximal disability score: Eye movements", "setting": "[2]; day 70 after immunization", "result": 1}, {"measurement": "Maximal disability score: Motor (grip)*", "setting": "[2]; day 70 after immunization", "result": 4}, {"measurement": "Maximal disability score: Other signs (shine hairs and loose skin)", "setting": "[2]; day 70 after immunization", "result": 0}, {"measurement": "Maximal disability score: Sensory* Light touch", "setting": "[2]; day 70 after immunization", "result": 0}, {"measurement": "Maximal disability score: Sensory* Pain", "setting": "[2]; day 70 after immunization", "result": 0}, {"measurement": "Maximal disability score: Spontaneous mobility", "setting": "[2]; day 70 after immunization", "result": 3}, {"measurement": "Maximal disability score: Tone*", "setting": "[2]; day 70 after immunization", "result": 4}, {"measurement": "Maximal disability score: Tremor", "setting": "[2]; day 70 after immunization", "result": 0}, {"measurement": "Maximal disability score: Vision (including pupillary reflex)", "setting": "[2]; day 70 after immunization", "result": 0}, {"measurement": "Total expanded disability scale", "setting": "[2]; day 70 after immunization", "result": 13}, {"measurement": "Maximal disability score: Alertness", "setting": "[2]; day 75 after immunization", "result": 1}, {"measurement": "Maximal disability score: Bladder function", "setting": "[2]; day 75 after immunization", "result": 1}, {"measurement": "Maximal disability score: Eye movements", "setting": "[2]; day 75 after immunization", "result": 0}, {"measurement": "Maximal disability score: Motor (grip)*", "setting": "[2]; day 75 after immunization", "result": 8}, {"measurement": "Maximal disability score: Other signs (shine hairs and loose skin)", "setting": "[2]; day 75 after immunization", "result": 0}, {"measurement": "Maximal disability score: Sensory* Light touch", "setting": "[2]; day 75 after immunization", "result": 4}, {"measurement": "Maximal disability score: Sensory* Pain", "setting": "[2]; day 75 after immunization", "result": 8}, {"measurement": "Maximal disability score: Spontaneous mobility", "setting": "[2]; day 75 after immunization", "result": 3}, {"measurement": "Maximal disability score: Tone*", "setting": "[2]; day 75 after immunization", "result": 4}, {"measurement": "Maximal disability score: Tremor", "setting": "[2]; day 75 after immunization", "result": 0}, {"measurement": "Maximal disability score: Vision (including pupillary reflex)", "setting": "[2]; day 75 after immunization", "result": 1}, {"measurement": "Total expanded disability scale", "setting": "[2]; day 75 after immunization", "result": 30}, {"measurement": "Maximal disability score: Alertness", "setting": "[2]; day 119 after immunization", "result": 1}, {"measurement": "Maximal disability score: Bladder function", "setting": "[2]; day 119 after immunization", "result": 0}, {"measurement": "Maximal disability score: Eye movements", "setting": "[2]; day 119 after immunization", "result": 1}, {"measurement": "Maximal disability score: Motor (grip)*", "setting": "[2]; day 119 after immunization", "result": 4}, {"measurement": "Maximal disability score: Other signs (shine hairs and loose skin)", "setting": "[2]; day 119 after immunization", "result": 2}, {"measurement": "Maximal disability score: Sensory* Light touch", "setting": "[2]; day 119 after immunization", "result": 4}, {"measurement": "Maximal disability score: Sensory* Pain", "setting": "[2]; day 119 after immunization", "result": 4}, {"measurement": "Maximal disability score: Spontaneous mobility", "setting": "[2]; day 119 after immunization", "result": 2}, {"measurement": "Maximal disability score: Tone*", "setting": "[2]; day 119 after immunization", "result": 4}, {"measurement": "Maximal disability score: Tremor", "setting": "[2]; day 119 after immunization", "result": 1}, {"measurement": "Maximal disability score: Vision (including pupillary reflex)", "setting": "[2]; day 119 after immunization", "result": 0}, {"measurement": "Total expanded disability scale", "setting": "[2]; day 119 after immunization", "result": 23}]}
